“Also recorded” adds a separate entry of the source. One block for each compound: values may come before it.
Legend:
[1] = target: SERT (rat forebrain synaptosomal membrane) (Rattus norvegicus (Rat), UniProt P31652); assay: Transporter SERT radioligand binding assay in rat forebrain, [3H]-N-Methyl-Citalopram; conditions: Table 2
socially-defeated mice [2] = assay: Social defeat (resident-intruder) mouse model for depression; assay type: in vivo
[3] = system: unilateral 6-OHDA-lesioned mice; assay: L-DOPA induced dyskinesia (AIMS) in unilateral 6-OHDA-lesioned mice; assay type: in vivo, mouse
Source text: Day 1-Day 9: Treatment with L-DOPA/benserazide
Day 10: Treatment with L-DOPA/benserazide+Evaluation of AIMs (dyskinesia)
Experiment 1 (Chronic): Development of Dyskinesia
Day 1-Day 10: Treatment with L-DOPA/benserazide plus ITI-007 ITI-007PD.
Day 11: Treatment with L-DOPA/benserazide+Evaluation of AIMs (dyskinesia)
Experiment 2 (Acute): Expression of dyskinesia
Day 1-Day 10: Treatment with L-DOPA/benserazide
Day 11: Treatment with L-DOPA/benserazide plus ITI-007+Evaluation of AIMs (dyskinesia)
The compound effectively reduces (by ˜50%) the development of dyskinetic behaviors in PD mice (i.e., Chronic treatment group). It has a less robust but still significant effect (by ˜25% reduction) on established dyskinetic behaviors (i.e., Acute treatment group). […] In addition to reducing L-DOPA-Induced Dyskinesias, as described above, the Compounds of Formula I will also reduce PD psychosis and depression, improve poor night time sleep and reduce excessive daytime sleepiness.

[4] = system: patients with sleep maintenance insomnia (SMI); assay: Clinical trial, overnight PSG in patients with sleep maintenance insomnia; assay type: in vivo, human; conditions: for SWS, Mean Change from Baseline / Total Sleep Time, Mean Change from Baseline / Total Time Awake, Mean Change from Baseline / WASO, Mean Change from Baseline: n = 18, PSG
Striatal D2 receptor = Striatal D2 receptor (Homo sapiens (Human), UniProt P14416); assay: Striatal D2 receptor occupancy by positron emission tomography in healthy volunteers; assay type: in vivo; conditions: PET
Chain of Striatal D2 receptor (P14416 whole entry): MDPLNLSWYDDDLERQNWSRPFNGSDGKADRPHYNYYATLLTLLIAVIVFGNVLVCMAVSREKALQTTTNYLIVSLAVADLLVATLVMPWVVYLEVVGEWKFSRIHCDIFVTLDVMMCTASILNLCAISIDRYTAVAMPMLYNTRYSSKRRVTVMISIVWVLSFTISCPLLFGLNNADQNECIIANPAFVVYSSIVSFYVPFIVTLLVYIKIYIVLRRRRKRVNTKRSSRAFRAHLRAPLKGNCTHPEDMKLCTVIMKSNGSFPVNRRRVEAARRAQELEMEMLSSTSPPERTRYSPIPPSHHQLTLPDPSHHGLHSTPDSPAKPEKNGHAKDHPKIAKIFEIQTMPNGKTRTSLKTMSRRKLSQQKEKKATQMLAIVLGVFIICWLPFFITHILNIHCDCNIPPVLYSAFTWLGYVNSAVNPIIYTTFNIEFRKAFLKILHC

human 5-HT2C receptors = human 5-HT2C receptors (Homo sapiens (Human), UniProt P28335, I156V/I160V); assay: biochemical
Chain of human 5-HT2C receptors (P28335 33-458 I156V/I160V): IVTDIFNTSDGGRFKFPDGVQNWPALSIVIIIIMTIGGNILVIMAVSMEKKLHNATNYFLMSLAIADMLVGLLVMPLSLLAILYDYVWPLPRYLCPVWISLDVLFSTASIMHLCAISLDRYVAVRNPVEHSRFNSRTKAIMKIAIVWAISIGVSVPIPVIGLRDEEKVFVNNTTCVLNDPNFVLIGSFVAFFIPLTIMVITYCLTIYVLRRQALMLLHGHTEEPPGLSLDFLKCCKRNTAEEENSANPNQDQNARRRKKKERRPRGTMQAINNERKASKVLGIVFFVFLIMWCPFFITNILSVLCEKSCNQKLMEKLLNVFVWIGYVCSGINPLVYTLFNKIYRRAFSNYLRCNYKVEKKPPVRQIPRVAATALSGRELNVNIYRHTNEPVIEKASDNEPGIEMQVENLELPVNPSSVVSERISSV

H1 receptors = H1 receptors (Homo sapiens (Human), UniProt P35367); assay: biochemical
Chain of H1 receptors (P35367 whole entry): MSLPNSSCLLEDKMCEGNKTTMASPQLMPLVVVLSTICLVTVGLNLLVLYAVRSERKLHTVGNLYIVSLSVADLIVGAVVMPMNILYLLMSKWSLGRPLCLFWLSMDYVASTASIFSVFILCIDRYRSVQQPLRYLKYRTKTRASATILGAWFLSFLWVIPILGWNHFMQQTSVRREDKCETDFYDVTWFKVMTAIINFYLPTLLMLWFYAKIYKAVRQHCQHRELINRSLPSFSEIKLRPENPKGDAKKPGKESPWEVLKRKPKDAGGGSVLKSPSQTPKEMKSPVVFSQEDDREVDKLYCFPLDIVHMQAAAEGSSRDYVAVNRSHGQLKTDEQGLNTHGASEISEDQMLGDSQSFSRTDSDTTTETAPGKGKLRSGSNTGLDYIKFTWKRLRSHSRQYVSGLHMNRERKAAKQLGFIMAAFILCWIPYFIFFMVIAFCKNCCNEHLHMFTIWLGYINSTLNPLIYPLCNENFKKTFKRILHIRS

socially-defeated mice [5] = conditions: treated daily for 30 days; cited from earlier work
[6] = 1, 5, 10 mg single doses, in words

Chain of SERT (rat forebrain synaptosomal membrane) (P31652 whole entry): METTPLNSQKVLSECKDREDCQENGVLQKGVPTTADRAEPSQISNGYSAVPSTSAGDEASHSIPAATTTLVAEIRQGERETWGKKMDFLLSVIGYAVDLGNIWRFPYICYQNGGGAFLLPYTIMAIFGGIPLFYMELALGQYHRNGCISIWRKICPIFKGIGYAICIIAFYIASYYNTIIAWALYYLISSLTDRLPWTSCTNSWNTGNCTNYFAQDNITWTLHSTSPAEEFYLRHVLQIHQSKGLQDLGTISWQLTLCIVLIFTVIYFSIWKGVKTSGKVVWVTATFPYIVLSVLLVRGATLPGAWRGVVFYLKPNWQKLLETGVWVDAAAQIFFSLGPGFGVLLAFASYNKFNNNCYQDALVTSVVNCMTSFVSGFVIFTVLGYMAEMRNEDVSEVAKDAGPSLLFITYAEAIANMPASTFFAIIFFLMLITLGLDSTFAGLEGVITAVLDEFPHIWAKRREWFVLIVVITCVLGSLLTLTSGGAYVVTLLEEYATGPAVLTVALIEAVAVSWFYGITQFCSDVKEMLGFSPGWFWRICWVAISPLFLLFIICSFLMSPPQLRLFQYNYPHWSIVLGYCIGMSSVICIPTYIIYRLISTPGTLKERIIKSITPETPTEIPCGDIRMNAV

- Ki [1]: 46 nM
- early-morning rebound insomnia ([4]; human, in vivo): no early-morning rebound insomnia
- % Striatal D2 Occupancy (Striatal D2 receptor; 20 mg): ~20%
- % Striatal D2 Occupancy (Striatal D2 receptor; 30 mg): ~32%
- Ki (human 5-HT2C receptors): 173 nM
- Ki (H1 receptors): > 100 nM
SMILES: CN1CCN2c3c(cccc31)[C@@H]1CN(CCCC(=O)c3ccc(F)cc3)CC[C@@H]12 [Compound A, 1-(4-Fluoro-phenyl)-4-((6bR,10aS)-3-methyl-2,3,6b,9,10,10a-hexahydro-1H,7H-pyrido[3′,4′,4,5]pyrrolo[1,2,3-de]quinoxalin-8-yl)-butan-1-one]
- time in the Interaction Zone, socially-defeated mice (socially-defeated mice [2]; 1 mg/kg IP once daily for 29 d, tested day 30, versus socially-defeated mice receiving vehicle): almost twice as much time in the Interaction Zone
- general health and weight gain, normal mice (socially-defeated mice [2]; normal mice treated once daily for 30 d, 1 mg/kg IP): healthy and normal-appearing and gained weight normally
- time in the Interaction Zone, normal mice (socially-defeated mice [2]; normal mice, 1 mg/kg IP once daily, versus vehicle): comparable time in the Interaction Zone as mice receiving the vehicle injection
- reduction of development of dyskinetic behaviors (Chronic treatment group) ([3]; 0.3 mg/kg IP co-administered with levodopa 10 mg/kg IP, chronic): ~50%
- reduction of established dyskinetic behaviors (Acute treatment group) ([3]; 0.3 mg/kg IP with levodopa 10 mg/kg IP, acute): ~25%
- SWS, Mean Change from Baseline ([4]; 1 mg single dose): 0.47 min
- Total Sleep Time, Mean Change from Baseline ([4]; 1 mg single dose): 4.17 min
- Total Time Awake, Mean Change from Baseline ([4]; 1 mg single dose): -4.08 min
- WASO, Mean Change from Baseline ([4]; 1 mg single dose): -12.69 min
- SWS, Mean Change from Baseline ([4]; 5 mg single dose): 5.53 min
- Total Sleep Time, Mean Change from Baseline ([4]; 5 mg single dose): 0.56 min
- Total Time Awake, Mean Change from Baseline ([4]; 5 mg single dose): -1.42 min
- WASO, Mean Change from Baseline ([4]; 5 mg single dose): -14.31 min
- SWS, Mean Change from Baseline ([4]; 10 mg single dose): 8.94 min
- Total Sleep Time, Mean Change from Baseline ([4]; 10 mg single dose): 27.61 min
- Total Time Awake, Mean Change from Baseline ([4]; 10 mg single dose): -28.31 min
- WASO, Mean Change from Baseline ([4]; 10 mg single dose): -33.22 min
- effect on slow wave sleep (SWS) [4, 6]: increases SWS; also recorded: dose-dependently increase slow wave sleep
- effect on wake time after sleep onset (WASO) [4, 6]: dose-dependently decreases WASO; also recorded: dose-dependently decreases wake after sleep onset
- duration of REM ([4]; PSG): no change in duration of REM; also recorded: did not suppress REM sleep
- latency to REM ([4]; PSG): no change on latency to REM
- latency to fall asleep ([4]; PSG): does not impair latency to fall asleep
- slow wave sleep by part of the night ([4]; first and second quarter of the night): increases slow wave sleep during the first half of the night
- dose-related adverse events or changes in safety parameters ([4]; human, in vivo): no dose-related adverse events or changes in safety parameters
- serious adverse events ([4]; human, in vivo): no serious adverse events
- total sleep time ([4]; in words): increase total sleep time
- cognitive function the morning after PSG (DSST, WPAT, Leeds Psychomotor Test) ([4]; next day): does not impair cognitive function; also recorded: do not impair next-day cognitive function
- sleep architecture ([4]; over the course of the night): preserves normal sleep architecture over the course of the night
- safety and tolerability ([4]; patients with sleep maintenance insomnia): safe and well tolerated; also recorded: safe and well-tolerated
- stage 2 sleep by part of the night ([4]; third and fourth quarter of the night): increases stage 2 sleep during the second half of the night

SMILES: CN(C)CCCN1c2ccccc2CCc2ccccc21 [IMI, imipramine]
- social interaction behavior of socially defeated mice after chronic anti-depressant (socially-defeated mice [5]): improved social interaction behavior

SMILES: CNCCC(Oc1ccc(C(F)(F)F)cc1)c1ccccc1 (centres unmarked) [fluoxetine]
- social interaction behavior of socially defeated mice after chronic anti-depressant (socially-defeated mice [5]): improved social interaction behavior

— patent US8598119B2, “Methods and compositions for sleep disorders and other disorders” (priority 2008, dated 2013)
